Values quoted from earlier work as cited in US6316027A, “Fast-dissolving dosage forms for dopamine agonists” (priority 1995, dated 2001).

What was measured:
[1] = not given; remark: listed apart in the source
[2] = acidic environment
[3] = not given; remark: listed apart in the source
[4] = sub-lingual tablets, prolonged use

Compound	incidence of malignant melanoma (patients undergoing treatment with levodopa)	involuntary movements on prolonged use (prolonged use)	fraction entering the brain ([1]; in vivo)	absorption from the small intestine ([1]; oral)	chemical stability [2]	nasal side effects ([3]; intranasal)	presystemic metabolism (first pass effect) ([3]; oral tablets, small intestine and/or liver)	blood urea nitrogen ([3]; oral, long-term studies, stopped after 7-10 days)	buccal mucosal ulceration, share of patients [3, 4]	stomatitis [3, 4]	dopamine agonist side effects ([3]; subcutaneous)
N[C@@H](Cc1ccc(O)c(O)c1)C(=O)O [levodopa]	increased incidence of malignant melanoma	involuntary choreiform movements	less than 1%	well absorbed from the small intestine	–	–	–	–	–	–	–
CN1CCc2cccc3c2[C@H]1Cc1ccc(O)c(O)c1-3 [apomorphine, 5,6,6a,7-tetrahydro-6-methyl-4H-dibenzo quinoline-10; 11-diol]	–	–	–	–	optimal chemical stability in an acidic environment	transient nasal blockage, burning sensation and swollen nose and lips	extensive presystemic metabolism	unexplained rises in blood urea nitrogen	half the patients	severe stomatitis	nausea and vomiting
